Experimental data published in patent US20130203778A1, “PHARMACEUTICAL COMPOSITION COMPRISING A PYRIMIDINEONE DERIVATIVE” (Glenmark Pharmaceuticals S.A., priority 2010, published 2013).

Columns and labels:
[1] = Qualitative solubility of Compound I in water and organic solvents; type: physicochemical
[2] = Solubility of Compound I with various hydrophilic carriers and in solid dispersion composition form at 25° C. (HPLC assay); type: physicochemical
Procedure: Buffers were prepared as per USP. Compound I (100 mg) equivalent was added to various buffers (100 ml) in presence of various hydrophilic carriers. The samples were sonicated for 15 minutes. A solid dispersion composition form of Compound I was also evaluated for solubility on similar lines. Quantification was done by assay method on HPLC by comparison with standard solution. The assay provided the relative amount of drug (mg/ml) in the sample solution. The results were extrapolated to represent the solubility in 900 ml of buffer solutions.
Preparation of Test solution: Compound I (100 mg) was added to various buffers (100 ml) in presence of various surfactants. The samples were sonicated for 15 minutes. Evaluation was done by assay method on HPLC by comparison with standard solution.
Mixture of 0.01M Ammonium Acetate Buffer and Acetonitrile in the ratio of 20:80% v/v.
Mixture of water and acetonitrile in the ratio of 20:80 v/v.
Column: Hypersil BDS C18, 150×4.6 mm, 5 μm
Column temperature: 25° C.

[3] = with Cetrimide, ratio (w/w) 1:10
[4] = with Cremophor EL, ratio (w/w) 1:10
[5] = with Gelucire 44/14, ratio (w/w) 1:10
[6] = with Hydroxypropyl beta-cyclodextrin, ratio (w/w) 1:10, BLD = Below limit of detection (0.01 ppm)
[7] = with Labrafil, ratio (w/w) 1:10
[8] = with Labrasol, ratio (w/w) 1:10
[9] = with Poloxamer 407, Compound I to carrier ratio (w/w) 1:1
[10] = with Sodium lauryl sulphate, ratio (w/w) 1:5, BLD = Below limit of detection (0.01 ppm)
[11] = with Tween 80, ratio (w/w) 1:10
[12] = with Tween 80, ratio (w/w) 1:30
[13] = with Vitamin E TPGS, ratio (w/w) 1:10
[14] = without hydrophilic carrier (1:0), BLD = Below limit of detection (0.01 ppm)

COc1cccc(/C=C/c2nc3sccn3c(=O)c2-c2ccc(OC(F)(F)F)cc2)c1OCC1CC1 [Compound I, 7-{(E)-2-[2-(cyclopropylmethoxy)-3-methoxyphenyl]vinyl}-6-(4-trifluoromethoxyphenyl)-5H-[1,3]thiazolo-[3,2-a]pyrimidin-5-one]
Solubility in acetone [1]: freely soluble | Solubility in chloroform [1]: freely soluble | Solubility in ethanol [1]: very slightly soluble | Solubility in methanol [1]: slightly soluble | Solubility in methylene dichloride [1]: freely soluble | Solubility in water ([1]; aqueous media having different pH ranging over 1.2 to 6.8): practically insoluble | Solubility, Acetate Buffer pH 4.5 [2, 3]: 0.27 mg/900 ml | Solubility, Phosphate Buffer pH 6.8 [2, 3]: 0.45 mg/900 ml | Solubility, Simulated gastric fluid pH 1.2 [2, 3]: 0.54 mg/900 ml | Solubility, Acetate Buffer pH 4.5 [2, 4]: 2.61 mg/900 ml | Solubility, Phosphate Buffer pH 6.8 [2, 4]: 2.52 mg/900 ml | Solubility, Simulated gastric fluid pH 1.2 [2, 4]: 0.54 mg/900 ml | Solubility, Acetate Buffer pH 4.5 [2, 5]: 1.17 mg/900 ml | Solubility, Phosphate Buffer pH 6.8 [2, 5]: 0.99 mg/900 ml | Solubility, Simulated gastric fluid pH 1.2 [2, 5]: 0.09 mg/900 ml | Solubility, Acetate Buffer pH 4.5 ([2]; with HPMC, ratio (w/w) 1:5): 0.18 mg/900 ml | Solubility, Phosphate Buffer pH 6.8 ([2]; with HPMC, ratio (w/w) 1:5): 0.81 mg/900 ml | Solubility, Simulated gastric fluid pH 1.2 ([2]; with HPMC, ratio (w/w) 1:5): 0.72 mg/900 ml | Solubility, Acetate Buffer pH 4.5 [2, 6]: BLD | Solubility, Phosphate Buffer pH 6.8 [2, 6]: BLD | Solubility, Simulated gastric fluid pH 1.2 [2, 6]: BLD | Solubility, Acetate Buffer pH 4.5 [2, 7]: 0.27 mg/900 ml | Solubility, Phosphate Buffer pH 6.8 [2, 7]: 0.18 mg/900 ml | Solubility, Simulated gastric fluid pH 1.2 [2, 7]: 0.09 mg/900 ml | Solubility, Acetate Buffer pH 4.5 [2, 8]: 0.18 mg/900 ml | Solubility, Phosphate Buffer pH 6.8 [2, 8]: 0.72 mg/900 ml | Solubility, Simulated gastric fluid pH 1.2 [2, 8]: 0.36 mg/900 ml | Solubility, Acetate Buffer pH 4.5 [2, 9]: 0.18 mg/900 ml | Solubility, Phosphate Buffer pH 6.8 [2, 9]: 0.09 mg/900 ml | Solubility, Simulated gastric fluid pH 1.2 [2, 9]: 0.27 mg/900 ml | Solubility, Acetate Buffer pH 4.5 [2, 10]: BLD | Solubility, Phosphate Buffer pH 6.8 [2, 10]: BLD | Solubility, Simulated gastric fluid pH 1.2 [2, 10]: BLD | Solubility, Acetate Buffer pH 4.5 [2, 11]: 3.06 mg/900 ml | Solubility, Phosphate Buffer pH 6.8 [2, 11]: 3.69 mg/900 ml | Solubility, Simulated gastric fluid pH 1.2 [2, 11]: 0.45 mg/900 ml | Solubility, Acetate Buffer pH 4.5 [2, 12]: 8.82 mg/900 ml | Solubility, Phosphate Buffer pH 6.8 [2, 12]: 15.84 mg/900 ml | Solubility, Simulated gastric fluid pH 1.2 [2, 12]: 1.44 mg/900 ml | Solubility, Acetate Buffer pH 4.5 [2, 13]: 1.35 mg/900 ml | Solubility, Phosphate Buffer pH 6.8 [2, 13]: 1.80 mg/900 ml | Solubility, Simulated gastric fluid pH 1.2 [2, 13]: 0.63 mg/900 ml | Solubility, Acetate Buffer pH 4.5 [2, 14]: BLD | Solubility, Phosphate Buffer pH 6.8 [2, 14]: BLD | Solubility, Simulated gastric fluid pH 1.2 [2, 14]: BLD**
